The source of these data is US20250213560A1, “NITROGEN-CONTAINING HETEROCYCLIC COMPOUNDS HAVING PHENYL GROUP AND USES THEREOF” (BNH RESEARCH CO., LTD., priority 2022, published 2025).

One series has as its system 293T cells. The series can be described thus: Cytotoxicity test (CCK-8 cell viability) in 293T cells. The class given is cell-based, human. A digest of the protocol:
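293T cells plated 24 h, then exposed to serial compound concentrations for 24 h (six replicates). Viability by CCK-8 ([…], OD 450 nm), blank-subtracted and expressed as percent of vehicle control; IC50 calculated from these values.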

Another series concerns GluN2B. The series can be described thus: GluN2B protein expression by Western blot in primary cortical neuron cells. Format: cell-based, mouse. A digest of the protocol:
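Mouse fetal cortical neurons (E17–18) cultured 13–14 days, then treated with BnH compounds for 24 h. GluN2B in RIPA lysates (20 μg/lane) measured by Western blot, normalized to β-actin, and expressed relative to vehicle set to 1 (n ≥ 3).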
In general terms: In western blotting, separated proteins are transferred to a membrane and probed.

The subject of another series is BDNF. The experiment in a line: BDNF expression in SH-SY5Y cells. The following applies: 1 μM, application for 6 and 24 hours. The class given is cell-based, human. The protocol: Human undifferentiated neuroblastoma cell line SH-SY5Y and human embryonic kidney cell line (HEK)-293T were purchased from Korean Cell Line Bank (Korea) and Takara (Japan), respectively. Cells were grown in HyClone Minimal Essential Medium (MEM) and Dulbecco's Modified Eagle Medium (DMEM), respectively, supplemented with 10% (v/v) fetal bovine serum (FBS), penicillin (100 U/mL), and streptomycin ([…]). Cells were maintained in a humidified atmosphere of 95% air and 5% CO2 at 37° C. Cells were passaged 10 times at maximum. Cells were dissociated using 0.05% trypsin-EDTA solution and the cells were seeded in new culture dishes for maintenance.
RT-PCR was used to measure the amount of BDNF and GluN2B in response to compounds of the present disclosure. 293T cells were dissociated using 0.05% Trypsin-EDTA solution and seeded in 24 well or 6 well dishes for RNA work. After incubation at 37° C. in a humidified atmosphere with 5% CO2 for 24 hours, the culture medium was replaced by a medium containing a series of concentrations of tested compounds diluted with the DMEM without FBS. Time course experiments were performed. The same volume of DMSO was used for negative control.
Similarly, BnH12003 (1 μM) augmented BDNF and GluN2B expression by application for 6 and 24 hours in SH-SY5Y cells (FIGS. 11A and 11B).

On to `C[C@H]1CC[C@@H](C(=O)O)CN1C(=O)Cc1ccc(-c2cncnc2)cc1` [BnH12003, (3R,6S)-6-methyl-1-(2-(4-(pyrimidin-5-yl)phenyl)acetyl) piperidine-3-carboxylic acid], for which, in the series with 293T cells (293T cell line, 10 uM), the “Cell viability test results (CCK) 10 uM” value was 99%<. Moreover, the “Cell viability test results (CCK) 100 uM” value in the series with 293T cells (293T cell line, 100 uM) came to 90%<. In addition, the cell viability entry with 293T cells (293T, 0, 0.1, 1, 10, 100 μM, 24 hours, CCK-8) is “no significant change in cell viability”. For the same compound, in the series on GluN2B (compared to vehicle / other compounds, Table 5), the “GluN2B expression effect (in words)” value was “excellent effects”. Also, the “Western blot results Mean (GluN2B expression)” value in the series with GluN2B (relative value, vehicle set to 1, primary cortical neurons treated for 24 hours) is 2.141. Further, in the series with BDNF, the BDNF expression entry is “augmented”.
